For orientation: inhibition means the change of the read-out against control, counted positive when it falls.

Experimental findings from patent publication US10183032B2, “Methods for treating bacterial infection” (Ball State Innovation Corporation, priority 2012, dated 2019) are described below.

The subject of one assay is Streptococcus pyogenes. As to the kind of experiment: Streptococcus pyogenes invasion assay in HUVEC, CFU recovery. The class given is cell-based. Particulars: for inhibition at 10 µM: Streptococcus pyogenes, HUVEC. The protocol:
FIG. 12 is a graph illustrating that ML 141 inhibition of cell invasion by S. pyogenes is reversible. HUVEC were pretreated with ML 141 (10 μM) or with dimethyl sulfoxide (DMSO) as the vehicle control (1 h). Following pretreatment, ML 141-containing media was removed from the washout samples and replaced with DMSO-containing media for 60 min prior to incubation with Streptococcus pyogenes at a multiplicity of infection of 30 (2 h). Extracellular bacteria were removed by gentamicin, an antimicrobial with limited mammalian membrane permeability. Intracellular bacteria were released from HUVEC into the medium by incubation in cold water (5 min). Serial dilutions were incubated (16 h) on Todd Hewitt broth/blood agar plates and colonies enumerated to determine colony forming units (CFU)/ml (*P<0.05 by one-way ANOVA followed by Student-Newman-Keuls post-hoc analysis; n=4/treatment).
Human umbilical vein endothelial cells (HUVEC, EMD Millipore, Billerica, Mass., SCCE001) were cultured in EndoGRO-LS complete media (EMD Millipore, SCME001) and maintained in 75 cm^2 vented cap flasks (Thermo-Fisher Scientific, Pittsburgh, Pa., 10-126-37) at 37° C./5% CO2. Streptococcus pyogenes (90-226, M1+) was cultured in Todd Hewitt broth (THB, Thermo-Fisher Scientific, DF0492-17-6) and grown at 37° C. with no shaking.
Two days prior to infection, S. pyogenes were cultured in 5 ml THB 18-24 h from a single colony grown on THB/blood (Cleveland Scientific, Bath, Ohio, SBCIT-100) agar (Moorhead & Company, Rocklin, Calif., gelidium), and 10 μl subcultured 18 h prior to infection. HUVEC were seeded in 24-well plates (Sigma-Aldrich, St. Louis, Mo., CLS3524) that had been coated with Attachment Factor (Life Technologies, Carlsbad, Calif., S006100) for 30 min at 37° C./5% CO2. HUVEC were plated at a density of 1.5×10^5 cells/well. For infection, S. pyogenes were harvested by centrifugation, 37° C./3 min/10,000 RPM, washed, and resuspended in fresh 0.85% saline (NaCl, Thermo-Fisher Scientific, S-271-500). Bacteria were diluted to 4.8×10^8 colony forming units (CFU)/ml and incubated at 37° C./5% CO2 with HUVEC at multiplicity of infection and for duration indicated in each figure or table. CFU of 90-226 S. pyogenes had been determined from a growth curve, fitting an OD600 of 0.5 to 4.8×10^8 CFU/ml. After infection, each well was washed three times with sterile 1× phosphate buffered saline (PBS, Life Technologies, 20012043) to remove unattached S. pyogenes. HUVEC were then incubated at 37° C., 5% CO2 for 45 min in 10% fetal bovine serum (FBS, Atlanta Biologicals, Flowery Branch, Ga., S111S0)/PBS containing 500 μg/ml gentamicin (Sigma-Aldrich, G1272). Following the incubation with gentamicin to remove extracellular bacteria, HUVEC were washed three times with PBS. Sterile distilled ice-cold water (Life Technologies, 15230-162) was added to each well for 5 min at room temperature (RT) to permeabilize the host cells. Serial dilutions of this bacteria-containing water were performed in saline, plated on THB/blood agar, and incubated for 18-20 h at 37° C. The following day, colonies were counted to determine CFU/ml recovered from invasion.

The test system of the next assay is β1 integrin subunit. Kind of assay: β1 integrin surface expression in HUVEC, flow cytometry. The class given is cell-based, human. Particulars: ML 141 10 μM versus DMSO. The protocol: FIG. 10B is a graph illustrating that expression of the […] integrin subunit remains substantially unchanged in HUVEC incubated with DMSO or ML 141 (10 μM). Pretreated HUVEC were stained with PE conjugated anti-β1 and examined using flow cytometry (no difference between groups was detected, t-test, p>0.05).
To examine β1 surface expression, recycling of the integrin was terminated (4° C., 15 min) and HUVEC lifted from plates using cell scrapers. After washing in FACS buffer (2% BSA/0.1% sodium azide/PBS), cells were incubated with PE-conjugated anti-β1 (BD; 30 min, on ice), washed, fixed in FACS buffer containing 4% paraformaldehyde, and analyzed using an Accuri C6 flow cytometer (BD).
(In flow cytometry, cells or beads pass a laser one at a time.)

Where two headings read alike, the source gives them in different places.

For the molecule `COc1ccc(C2CC(c3ccccc3)=NN2c2ccc(S(N)(=O)=O)cc2)cc1` (centres unmarked) [ML 141, 4-[3-(4-methoxyphenyl)-5-phenyl-3,4-dihydropyrazol-2-yl]benzenesulfonamide], in the assay on Streptococcus pyogenes (ML 141 10 μM 1 h, washout 60 min, MOI 30, 2 h), the “reversibility of inhibition of S. pyogenes invasion” value is recorded as “reversible”. The “% Inhibition (± SEM)” value with Streptococcus pyogenes (ML 141 10 μM added 1 hour post-infection, 2 h, MOI 0.25) is given as “No difference”; with Streptococcus pyogenes (ML 141 10 μM added at time of infection, 2 h, MOI 30), “No difference”. The inhibition at 10 µM in the assay on Streptococcus pyogenes (2 h, read-out: % Inhibition (± SEM), ML 141 10 μM added at time of infection, 2 h, MOI 0.25 (first line)) amounted to 81 ± 7%; in the assay on Streptococcus pyogenes (2 h, read-out: % Inhibition (± SEM), ML 141 10 μM added at time of infection, 2 h, MOI 0.25 (second line)), 62 ± 10%; in the assay with Streptococcus pyogenes (read-out: % Inhibition (± SEM), ML 141 10 μM added 18-20 hours pre-infection, duration of infection 2 h, MOI 30), 96 ± 4%; with Streptococcus pyogenes (read-out: % Inhibition (± SEM), ML 141 10 μM added 1 hour post-infection, 2 h, MOI 0.0025), 92 ± 6%. For the same molecule, in the assay with β1 integrin subunit, the “expression of β1 integrin subunit” value is “no difference”.
